In the NIST ThermoML archive (doi:10.1021/acs.jced.9b00424):

Legend:
[1] = xn = mol fraction of the nth substance listed; conditions: x1 = 1; for viscosity: 100 kPa, Concentric cylinders viscometry; for viscosity / mass density: Liquid; for mass density: 101 kPa, Vibrating tube method; for surface tension liquid-gas: Pendant drop shape

CC(C)[C@@H]1CC[C@@H](C)C[C@H]1O (racemic) [DL-menthol]
Conditions | mass density [kg/m3] | viscosity [mPa·s]
303.15 K, 100 kPa, Metastable liquid, Concentric cylinders viscometry | – | 33.9
303.15 K, 101 kPa, Metastable liquid, Vibrating tube method | 898.2 | –
308.15 K, 100 kPa, Concentric cylinders viscometry, Liquid | – | 23.19
308.15 K, 101 kPa, Vibrating tube method, Liquid | 892.2 | –
313.15 K, 100 kPa, Concentric cylinders viscometry, Liquid | – | 16.44
313.15 K, 101 kPa, Vibrating tube method, Liquid | 886.4 | –
318.15 K, 100 kPa, Concentric cylinders viscometry, Liquid | – | 12
318.15 K, 101 kPa, Vibrating tube method, Liquid | 881 | –
323.15 K, 100 kPa, Concentric cylinders viscometry, Liquid | – | 9
323.15 K, 101 kPa, Vibrating tube method, Liquid | 875.8 | –
328.15 K, 100 kPa, Concentric cylinders viscometry, Liquid | – | 6.92
328.15 K, 101 kPa, Vibrating tube method, Liquid | 870.8 | –
333.15 K, 100 kPa, Concentric cylinders viscometry, Liquid | – | 5.43
333.15 K, 101 kPa, Vibrating tube method, Liquid | 866.2 | –
338.15 K, 100 kPa, Concentric cylinders viscometry, Liquid | – | 4.34
338.15 K, 101 kPa, Vibrating tube method, Liquid | 861.7 | –
343.15 K, 100 kPa, Concentric cylinders viscometry, Liquid | – | 3.53
343.15 K, 101 kPa, Vibrating tube method, Liquid | 857.6 | –
348.15 K, 100 kPa, Concentric cylinders viscometry, Liquid | – | 2.92
348.15 K, 101 kPa, Vibrating tube method, Liquid | 853.7 | –
353.15 K, 100 kPa, Concentric cylinders viscometry, Liquid | – | 2.446
353.15 K, 101 kPa, Vibrating tube method, Liquid | 850 | –

surface tension liquid-gas [mN/m]
Conditions | 303.79 K | 308.76 K | 314.03 K | 318.76 K | 323.45 K | 328.55 K | 333.09 K
Metastable liquid, Pendant drop shape | 21.82 | – | – | – | – | – | –
Pendant drop shape, Liquid | – | 21.35 | 20.44 | 19.91 | 19.18 | 18.76 | 18.15

CC(C)[C@@H]1CC[C@@H](C)C[C@H]1O [DL-menthol] + CCCCCCCC(=O)O
[1]
Conditions | mass density [kg/m3] | surface tension liquid-gas [mN/m] | viscosity [mPa·s]
303.15 K | 898.2 | – | 33.9
303.79 K | – | 21.82 | –
308.15 K | 892.2 | – | 23.19
308.76 K | – | 21.35 | –
313.15 K | 886.4 | – | 16.44
314.03 K | – | 20.44 | –
318.15 K | 881 | – | 12
318.76 K | – | 19.91 | –
323.15 K | 875.8 | – | 9
323.45 K | – | 19.18 | –
328.15 K | 870.8 | – | 6.92
328.55 K | – | 18.76 | –
333.09 K | – | 18.15 | –
333.15 K | 866.2 | – | 5.43
338.15 K | 861.7 | – | 4.34
343.15 K | 857.6 | – | 3.53
348.15 K | 853.7 | – | 2.92
353.15 K | 850 | – | 2.446

CCCCCCCC(=O)O [octanoic acid]
Liquid, Pendant drop shape
Conditions | surface tension liquid-gas [mN/m]
297.82 K | 30.95
302.68 K | 30.04
308.49 K | 28.56
312.93 K | 27.56
317.8 K | 26.06
322.15 K | 24.99
327.39 K | 24.46
331.72 K | 23.43

Liquid
Conditions | mass density [kg/m3] | viscosity [mPa·s]
298.15 K, 100 kPa, Concentric cylinders viscometry | – | 5.17
298.15 K, 101 kPa, Vibrating tube method | 917.2 | –
303.15 K, 100 kPa, Concentric cylinders viscometry | – | 4.54
303.15 K, 101 kPa, Vibrating tube method | 910.3 | –
308.15 K, 100 kPa, Concentric cylinders viscometry | – | 4.01
308.15 K, 101 kPa, Vibrating tube method | 903.8 | –
313.15 K, 100 kPa, Concentric cylinders viscometry | – | 3.59
313.15 K, 101 kPa, Vibrating tube method | 897.6 | –
318.15 K, 100 kPa, Concentric cylinders viscometry | – | 3.2
318.15 K, 101 kPa, Vibrating tube method | 891.7 | –
323.15 K, 100 kPa, Concentric cylinders viscometry | – | 2.88
323.15 K, 101 kPa, Vibrating tube method | 886.2 | –
328.15 K, 100 kPa, Concentric cylinders viscometry | – | 2.609
328.15 K, 101 kPa, Vibrating tube method | 880.9 | –
333.15 K, 100 kPa, Concentric cylinders viscometry | – | 2.372
333.15 K, 101 kPa, Vibrating tube method | 876 | –
338.15 K, 100 kPa, Concentric cylinders viscometry | – | 2.166
338.15 K, 101 kPa, Vibrating tube method | 871.4 | –
343.15 K, 100 kPa, Concentric cylinders viscometry | – | 1.985
343.15 K, 101 kPa, Vibrating tube method | 867.1 | –
348.15 K, 100 kPa, Concentric cylinders viscometry | – | 1.826
348.15 K, 101 kPa, Vibrating tube method | 863 | –
353.15 K, 100 kPa, Concentric cylinders viscometry | – | 1.683
353.15 K, 101 kPa, Vibrating tube method | 859.3 | –
